Values of other authors, collected in patent US20260265214A1, “NOVEL DERIVATIVES OF GLYCEROL” (SYMRISE AG, priority 2023, published 2026).

Conditions: in 28 days

- readily biodegradable: 85%
Compound: CCCCCC1C(=O)CCC1CC(=O)OC (stereo not shown) [methyl dihydrojasmonate, methyl 2-(3′-oxo-2′-pentylcyclopentyl)acetate]
